Our source for the GI50 and TGI values is PubChem BioAssay (NCI).

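A five-concentration, 48-hour dose response in 96-well plates underlies each endpoint, interpolated linearly between surrounding concentrations. Here, GI50 denotes the concentration required for 50% inhibition of growth. The concentration for full growth arrest is given as TGI.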

Common to all, as to assay: growth of human tumour cells (NCI), 48 h
Test [1] deals with MDA-MB-435.
The subject of test [2] is KM12 colon.
For test [3], the system named is HOP-92 NSCLC.
Test [4] deals with SN12C renal.
In test [5] the test system is OVCAR-4 ovarian.
For test [6], the system named is HOP-62 NSCLC.
Test [7] relates to 786-0 renal.
The test system of test [8] is SK-MEL-28 melanoma.
The test system of test [9] is NCI-H522 lung.
The test system of test [10] is K-562 leukemia.

`COc1ccccc1Cn1cc2c(c1-c1ccccc1)CCc1cnoc1-2`: the GI50 in test [1] was 0.279 µM; in test [2], 1.76 µM; in test [3], 1.36 µM; in test [4], 6.61 µM; in [5] it was 8.56 µM; in test [6], 3.73 µM. Besides, the GI50 is 4.04 µM in [7], 27 µM in test [8], 0.398 µM in [9] and 0.539 µM in [10]. The TGI in test [1] was 1.44 µM; in test [2], greater than 100 µM; in test [3], 9.42 µM; in test [4] it was greater than 100 µM; in test [5], greater than 100 µM; in test [6], greater than 100 µM. The TGI in [7] is greater than 100 µM; in test [8], greater than 100 µM; in test [9], 1.99 µM; in test [10], greater than 100 µM.

On to `COc1cc2c3c(n(CCCCOC(=O)C(Cl)(Cl)Cl)c(=O)c2cc1OC)-c1cc2c(cc1C3=O)OCO2`, for which the GI50 in test [1] is greater than 100 µM; in test [2], greater than 100 µM; in [3], greater than 100 µM; in test [4], 43.7 µM; in test [5], greater than 100 µM; in test [6], 29.3 µM. In addition, the GI50 is 17.2 µM in [7], greater than 100 µM in test [8], 0.692 µM in [9] and greater than 100 µM in test [10]. For the same compound, the TGI in [1], in [2], in test [3], in test [4], in test [5] and in [6] was greater than 100 µM throughout. The TGI in [7] is 41.3 µM; in test [8], greater than 100 µM; in test [9], 76.3 µM; in [10] it was greater than 100 µM.

In the case of `CC(C)(C)c1ccc(O)c(CN(Cc2cc(C(C)(C)C)ccc2O)c2ccccc2)c1`, the TGI stood at 36.4 µM in [1]; 66.7 µM in test [2]; 30.7 µM in test [3]; 32.1 µM in [4]; 61.8 µM in test [5]; 47.6 µM in test [6]. Moreover, the TGI in [7] turned out to be 30.7 µM; in test [8], 32.4 µM; in test [9], 26.9 µM; in test [10], 31.9 µM.

In the case of `CCc1oc2ccccc2c1C(=O)c1cc(I)c(O)c(I)c1`, the GI50 in [1] was 0.327 µM; in test [2], 1.62 µM; in [3], 1.04 µM; in [4], 4.18 µM; in test [5], 5.07 µM; in test [6], 5.85 µM. The GI50 is 3.76 µM in test [7], 8.45 µM in [8], 1.84 µM in [9] and 0.726 µM in test [10]. Moreover, the TGI in test [1] turned out to be 1.4 µM; in test [2] it was 13 µM; in test [3], 7.73 µM; in [4] it was 17.8 µM; in test [5] it was 18.1 µM; in test [6], 20.3 µM. The TGI in [7] is 15.3 µM; in [8], 21.6 µM; in test [9], 12.9 µM; in test [10] it was 18.8 µM.

`COc1cc2c3c(n(CCNCCCNCCn4c5c(c6cc(OC)c(OC)cc6c4=O)C(=O)c4ccccc4-5)c(=O)c2cc1OC)-c1ccccc1C3=O`: the GI50 was 1.02 µM in test [1]; 0.0754 µM in test [2]; 0.0656 µM in test [3]; less than 0.0166 µM in [4]; 1.6 µM in test [5]; 0.0614 µM in [6]. For the same compound, the GI50 in [7] is 0.186 µM; in test [8], 1.78 µM; in test [9], less than 0.0423 µM; in test [10], 0.103 µM. The TGI in test [1] was 2.55 µM; in test [2], 0.59 µM; in test [3], 0.556 µM; in test [4], 1.59 µM; in test [5], 20.3 µM; in [6], 1.9 µM. Further, the TGI turned out to be 6.17 µM in test [7], 5.07 µM in test [8], 6.66 µM in test [9] and 1.48 µM in [10].

Regarding `COC(=O)[C@H](Cc1c[nH]c2ccccc12)NC(=O)[C@@H](OC)[C@@H]1Cc2cc3cc(OC4CC(OC5CC(O)C(O)C(C)O5)C(O)C(C)O4)c(C)c(O)c3c(O)c2C(=O)[C@H]1OC1CC(OC2CC(OC3CC(C)(O)C(O)C(C)O3)C(O)C(C)O2)C(O)C(C)O1` (stereo not given in full), the GI50 is 0.00784 µM in test [1]; 0.00558 µM in test [2]; 0.0039 µM in test [3]; 0.00624 µM in test [4]; 0.0125 µM in [5]; 0.00771 µM in [6]. The GI50 is 0.0158 µM in test [7], 0.00424 µM in test [8], 0.00509 µM in test [9] and 0.0118 µM in test [10]. Besides, the TGI in test [1] is 0.0394 µM; in [2] it was 1.05 µM; in test [3], 0.0333 µM; in [4] it was 7.42 µM; in test [5] it was greater than 16.5 µM; in test [6] it was 5.53 µM. Further, the TGI in test [7] is greater than 16.5 µM; in test [8], 0.0193 µM; in [9], 0.0552 µM; in [10], greater than 16.5 µM.

In the case of `Cc1nc(-c2ccccc2)c(-c2ccccc2)s1`, the TGI in [1] is 69.1 µM; in test [2] it was 71.2 µM; in [3] it was 83.6 µM; in test [4] it was greater than 100 µM; in [5] it was greater than 100 µM; in [6], greater than 100 µM. For the same compound, the TGI in [7] was 50.8 µM; in [8], greater than 100 µM; in [9] it was 37.7 µM; in test [10], 57.2 µM.

On to `C=C1C(=O)O[C@H]2[C@H]1CC/C(COC(=O)c1cc3ccccc3s1)=C\CC[C@@]1(C)O[C@@H]21`, for which the GI50 in test [1] was 1.33 µM; in test [2], 1.78 µM; in [3], 1.68 µM; in test [4], 2.06 µM; in test [5] it was 2.08 µM; in test [6], 1.81 µM. The GI50 in test [7] is 1.52 µM; in test [8] it was 1.76 µM; in test [9], 0.987 µM; in test [10] it was 0.813 µM. The TGI in [1] worked out at 2.89 µM; in test [2] it was 4.08 µM; in test [3] it was 3.49 µM; in test [4] it was 4.61 µM; in [5], 4.57 µM; in test [6] it was 3.42 µM. Further, the TGI in test [7] was 3.44 µM; in test [8], 3.57 µM; in [9], 2.34 µM; in test [10], 30.5 µM.
